Assay results as given in patent publication US20240368163A1, “COMPOUNDS AND METHODS FOR MODULATING SPLICING” (REMIX THERAPEUTICS INC., priority 2021, published 2024).

Legend:
Format in all cases: cell-based, human
Target C [1] = test: Splicing RT-qPCR panel, Target C canonical junction (CJ) mRNA; conditions: Homo sapiens, RT-qPCR panel, canonical junction mRNA; compound concentration having 50% response in CJ decrease; read-out: Target C IC50 (decrease in CJ mRNA levels)
Outline: (§1)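 Splice switching is measured in A673 or K562 cells after 24 h compound exposure (maximum 10 uM, 3-fold steps). Canonical and alternative junction mRNA levels are quantified by RT-qPCR relative to housekeeper and DMSO.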

MYB [2] = test: Splicing RT-qPCR assay, MYB mRNA canonical junction (CJ) and alternative junction (AJ); conditions: Homo sapiens; for AC50: increase in AJ mRNA
Outline: as §1

MYB [3] = test: HiBiT protein abundance assay, MYB; conditions: Homo sapiens, K562, 24 h, Table 13A, modified K562 cells
Outline: (§2)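 K562 cells with endogenous HiBiT-tagged target were treated 24 h at 37 °C with compound (10-point 3-fold dilution, top 10 μM final, DMSO ≤0.25%). Lytic LgBiT luminescence was normalized to unmodified K562 (baseline) and DMSO-treated tagged cells; IC50 interpolated at 50% from four-parameter logistic fit.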

HTT [4] = test: HiBiT protein abundance assay, HTT; conditions: Homo sapiens, K562, 24 h, Table 13A, modified K562 cells
Outline: as §2

HTT [5] = test: Splicing RT-qPCR assay, HTT mRNA canonical junction (CJ) and alternative junction (AJ); conditions: Homo sapiens; for AC50: increase in AJ mRNA
Outline: as §1

SMN2 = test: Splicing RT-qPCR panel, SMN2 canonical junction (CJ) mRNA; conditions: Homo sapiens, RT-qPCR panel, canonical junction mRNA; compound concentration having 50% response in CJ decrease; read-out: SMN2 IC50 (decrease in CJ mRNA levels)
Outline: as §1

Target C [6] = test: HiBiT protein abundance assay, Target C; conditions: Table 13A, modified K562 cells
Outline: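 HiBiT knock-in K562-derived cells, 10000 cells/well, were treated 24 h at 37 °C with a 10-point 3-fold dilution series (top 10 μM final, DMSO ≤0.25%). Lytic HiBiT luminescence was normalized to unmodified K562 and DMSO controls; IC50 was interpolated at 50% from a four-parameter logistic fit.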

[7] = 24 h, decrease in CJ mRNA, A673 or K562 cells, 24 hours treatment, RT-qPCR, read-out: MYB CJ IC50
[8] = 24 h, A673 or K562 cells, 24 hours treatment, RT-qPCR
[9] = RT-qPCR panel, canonical junction mRNA, compound concentration having 50% response in CJ decrease, read-out: MYB IC50 (decrease in CJ mRNA levels)
[10] = 24 h, decrease in CJ mRNA, A673 or K562 cells, 24 hours treatment, RT-qPCR, read-out: HTT CJ IC50
[11] = RT-qPCR panel, canonical junction mRNA, compound concentration having 50% response in CJ decrease, read-out: HTT IC50 (decrease in CJ mRNA levels)

SMILES	IC50 (Target C [1]) [nM]	IC50 (MYB [2]; [7]) [nM]	AC50 (MYB [2]; [8]) [nM]	IC50 (MYB [2]; [9]) [nM]	IC50 (MYB [3]) [nM]	IC50 (HTT [4]) [nM]	IC50 (HTT [5]; [10]) [nM]	AC50 (HTT [5]; [8]) [nM]	IC50 (HTT [5]; [11]) [nM]	IC50 (SMN2) [nM]	IC50 (Target C [6]; Homo sapiens, K562, 24 h) [nM]	IC50 (Target C [6]; 24 hours) [nM]
CC(C)(C)NC1CCN(c2ccc(-c3ccc(-c4cn[nH]c4)c4cn[nH]c34)nn2)C1 (stereo not shown) [Compound 305]	1000 to 10000	1000 to 10000	1000 to 10000	1000 to 10000	100 to 1000	100 to 1000	100 to 1000	100 to 1000	100 to 1000	< 100	1000 to 10000	–
c1n[nH]cc1-c1ccc(-c2ccc(N3CCC(NC4CC4)C3)nn2)c2[nH]ncc12 (stereo not shown) [Compound 306]	> 10000	> 10000	> 10000	> 10000	1000 to 10000	1000 to 10000	> 10000	1000 to 10000	> 10000	100 to 1000	> 10000	–
CC(C)(C)NC1CCN(c2ccc(-c3ccc(-n4cccn4)c4cn[nH]c34)nn2)C1 (stereo not shown) [Compound 310]	> 10000	1000 to 10000	> 10000	1000 to 10000	1000 to 10000	1000 to 10000	1000 to 10000	1000 to 10000	1000 to 10000	100 to 1000	1000 to 10000	–
CN(c1ccc(-c2ccc(-c3cnn(C4CC4)n3)c3cn[nH]c23)nn1)[C@@H]1C[C@H]2CC[C@@H](C1)N2 [Compound 312, (1R,3s,5S)-N-(6-(4-(2-cyclopropyl-2H-1,2,3-triazol-4-yl)-1H-indazol-7-yl)pyridazin-3-yl)-N-methyl-8-azabicyclo[3.2.1]octan-3-amine]	1000 to 10000	1000 to 10000	100 to 1000	1000 to 10000	100 to 1000	100 to 1000	1000 to 10000	1000 to 10000	1000 to 10000	100 to 1000	1000 to 10000	–
CN(c1ccc(-c2ccc(-c3cnn(C)n3)c3cn[nH]c23)nn1)C1CCNCC1 [Compound 315, N-methyl-6-[4-(2-methyl-1,2,3-triazol-4-yl)-1H-indazol-7-yl]-N-(piperidin-4-yl)pyridazin-3-amine]	> 10000	1000 to 10000	1000 to 10000	1000 to 10000	100 to 1000	100 to 1000	1000 to 10000	1000 to 10000	1000 to 10000	100 to 1000	> 10000	–
Cn1ncc(-c2ccc(-c3ccc(OC4CC(C)(C)NC(C)(C)C4)nn3)c3[nH]ncc23)n1 [Compound 316]	1000 to 10000	100 to 1000	100 to 1000	100 to 1000	100 to 1000	100 to 1000	100 to 1000	100 to 1000	100 to 1000	< 100	100 to 1000	–
CCn1ncc(-c2ccc(-c3ccc(N(C)[C@@H]4C[C@H]5CC[C@@H](C4)N5)nn3)c3[nH]ncc23)n1 [Compound 317, N-{6-[4-(2-ethyl-1,2,3-triazol-4-yl)-1H-indazol-7-yl]pyridazin-3-yl}-N-methyl-8-azabicyclo[3.2.1]octan-3-amine]	1000 to 10000	100 to 1000	100 to 1000	100 to 1000	100 to 1000	100 to 1000	100 to 1000	100 to 1000	100 to 1000	1000 to 10000	100 to 1000	–
CN(c1ccc(-c2ccc(-c3cnn(CC4CC4)n3)c3cn[nH]c23)nn1)[C@@H]1C[C@H]2CC[C@@H](C1)N2 [Compound 318, N-(6-{4-[2-(cyclopropylmethyl)-1,2,3-triazol-4-yl]-1H-indazol-7-yl}pyridazin-3-yl)-N-methyl-8-azabicyclo[3.2.1]octan-3-amine]	1000 to 10000	1000 to 10000	1000 to 10000	1000 to 10000	1000 to 10000	1000 to 10000	1000 to 10000	1000 to 10000	1000 to 10000	1000 to 10000	1000 to 10000	–
Cn1cc(-c2c(F)cc(-c3ccc(OC4CC(C)(C)NC(C)(C)C4)nn3)c3[nH]ncc23)cn1 [Compound 319, 5-fluoro-4-(1-methylpyrazol-4-yl)-7-{6-[(2,2,6,6-tetramethylpiperidin-4-yl)oxy]pyridazin-3-yl}-1H-indazole]	1000 to 10000	100 to 1000	1000 to 10000	100 to 1000	100 to 1000	100 to 1000	100 to 1000	100 to 1000	100 to 1000	< 100	1000 to 10000	–
CN(c1ccc(-c2cc(F)c(-c3cnn(C)c3)c3cn[nH]c23)nn1)C1CC(C)(C)NC(C)(C)C1 [Compound 320, 6-[5-fluoro-4-(1-methylpyrazol-4-yl)-1H-indazol-7-yl]-N-methyl-N-(2,2,6,6-tetramethylpiperidin-4-yl)pyridazin-3-amine]	1000 to 10000	100 to 1000	–	100 to 1000	100 to 1000	100 to 1000	100 to 1000	100 to 1000	100 to 1000	< 100	–	100 to 1000
Cn1ncc(-c2ccc(-c3ccc(O[C@@H]4C[C@H]5CC[C@@H](C4)N5)nn3)c3[nH]ncc23)n1 [Compound 321, 7-{6-[(1R,3S,5S)-8-azabicyclo[3.2.1]octan-3-yloxy]pyridazin-3-yl}-4-(2-methyl-1,2,3-triazol-4-yl)-1H-indazole]	100 to 1000	100 to 1000	100 to 1000	100 to 1000	100 to 1000	100 to 1000	100 to 1000	100 to 1000	100 to 1000	< 100	100 to 1000	–
Cn1ncc(-c2ccc(-c3ccc(N[C@@H]4C[C@H]5CC[C@@H](C4)N5)nn3)c3[nH]ncc23)n1 [Compound 322]	< 100	< 100	< 100	< 100	< 100	< 100	–	< 100	< 100	< 100	< 100	–
Cn1cc(-c2ccc(-c3ccc(O[C@@H]4C[C@H]5CC[C@@H](C4)N5)nn3)c3[nH]ncc23)nn1 [Compound 323, 7-{6-[(1R,3S,5S)-8-azabicyclo[3.2.1]octan-3-yloxy]pyridazin-3-yl}-4-(1-methyl-1,2,3-triazol-4-yl)-1H-indazole]	1000 to 10000	100 to 1000	100 to 1000	100 to 1000	100 to 1000	100 to 1000	100 to 1000	100 to 1000	100 to 1000	< 100	1000 to 10000	–
Cn1cc(-c2ccc(-c3ccc(N[C@@H]4C[C@H]5CC[C@@H](C4)N5)nn3)c3[nH]ncc23)nn1 [Compound 324, (1R,3s,5S)-N-(6-(4-(1-methyl-1H-1,2,3-triazol-4-yl)-1H-indazol-7-yl)pyridazin-3-yl)-8-azabicyclo[3.2.1]octan-3-amine]	> 10000	1000 to 10000	1000 to 10000	1000 to 10000	1000 to 10000	1000 to 10000	1000 to 10000	1000 to 10000	1000 to 10000	100 to 1000	1000 to 10000	–
Cn1cc(-c2ccc(-c3ccc(OC4CC(C)(C)NC(C)(C)C4)nn3)c3[nH]ncc23)nn1 [Compound 325, 4-(1-methyl-1H-1,2,3-triazol-4-yl)-7-(6-((2,2,6,6-tetramethylpiperidin-4-yl)oxy)pyridazin-3-yl)-1H-indazole]	> 10000	1000 to 10000	1000 to 10000	1000 to 10000	1000 to 10000	1000 to 10000	1000 to 10000	1000 to 10000	1000 to 10000	100 to 1000	> 10000	–
